One may read the IC50 as the point on the concentration scale where inhibition reaches its midpoint. As usually defined, the inhibition is the change of the read-out against control, counted positive when it falls.

The target in series [1] is T1, RAD51 (Homo sapiens, UniProt Q06609).
T1 construct: His; made in house; host or cells: Escherichia coli BL21-DE3
T1 sequence (Q06609 1-339): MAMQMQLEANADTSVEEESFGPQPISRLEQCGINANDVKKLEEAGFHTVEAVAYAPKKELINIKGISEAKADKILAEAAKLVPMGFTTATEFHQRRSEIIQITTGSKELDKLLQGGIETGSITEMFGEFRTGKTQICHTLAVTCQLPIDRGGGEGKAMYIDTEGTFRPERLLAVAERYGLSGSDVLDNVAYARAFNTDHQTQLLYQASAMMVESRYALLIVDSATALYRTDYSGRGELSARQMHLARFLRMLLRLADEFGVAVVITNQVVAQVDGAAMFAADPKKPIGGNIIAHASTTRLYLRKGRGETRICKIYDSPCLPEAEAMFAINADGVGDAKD
As to the kind of experiment: D-loop assay (RAD51-mediated D-loop formation). It counts as biochemical. As to conditions: for Effect on D-loop structure formation: increasing concentration until 100 µM.
Protocol: Firstly, we incubated RAD51 with increasing concentrations of DIDS (from 1 to 100 µM) and then we calculated the percent of D-loop by quantifying the shifted band in comparison to the control condition in absence of DIDS (Figure 2A).
(A) D-loop structures in presence of increasing concentration of DIDS analogs (5, 25, 50, 145, and 100 µM) were separated and visualized on agarose gel. Last lane corresponds to the control condition without DIDS-derived molecule. (B) After quantification of signal intensity of shifted band corresponding to D-loop structure, the percent of D-loop is calculated in comparison to the condition in absence of drug and presented in relation to the increasing concentration (from 1 to 100 µM) of each small molecule. Three independent experiments were performed and each error bar represents s.d. statistical analysis.
An IRD700 100 bp ssDNA probe (Integrated DNA Technologies, Leuven, Belgium) is used to assess D-loop formation activity of RAD51. Reactional buffer is prepared (25 mM Tris-HCl pH7.5; 1 mM DTT; 1 mM ATP; 1 mM CaCl2; qsp water) in the presence of 1 µM ssDNA probe. RAD51 is then added to the reaction, and the mixture is incubated for 5 min at 37 °C. Plasmid DNA (3 mM) is next added to the reaction for a final volume of 10 µL and incubated at 37 °C for 15 min. Reaction is deproteinized by adding stop buffer (20 mM Tris-HCl pH7.5; 5 mg/mL proteinase K; qsp water) and the mixture is incubated for 20 min at 37 °C.

Series [2] deals with T1, RAD51. Nature of the series: RAD51 self-association by BS3 chemical cross-linking. To be noted: 50 µM of drug; for Effect on oligomer/monomer migration profile (self-association of RAD51): RAD51 8.5 µM, BS3 cross-link, SDS-PAGE; for Decrease of polymerization rate (oligomer/monomer form intensity ratio): three independent experiments. Format: biochemical. The source says:
The mechanism of action of these DIDS analogs molecules remains unclear, but they probably act on the protein–protein interaction site of RAD51. In order to assess their possible effect on the subunit–subunit RAD51 association, we investigated the oligomerization level of RAD51 in presence of these small molecules. By using BS3 cross-linker, we fixed the quaternary structure of RAD51 in absence or in presence of the five stilbene molecules. Oligomer and monomer forms were separated on SDS-PAGE and stained with Coomassie blue (Figure 4A). Oligomer forms include dimer, trimer, and high polymer while monomer form is well separated at 37 kDa.
Figure 4 Self-association of RAD51 is inhibited in the presence of DIDS, SITS, and DAZDS. (A) The polymerization of RAD51 was estimated by cross-link approach (see Material and Method section). (B) Oligomer and monomer forms ratio is presented as a histogram graph. Three independent experiments were performed and statistical analysis was performed using paired Student’s t-test. Statistical significance was assumed at ** p < 0.01, *** p < 0.001. Each error bar represents s.d. statistical analysis.
RAD51 at 8.5 µM was incubated with the indicated concentrations of chemical compounds for 5 min at room temperature in a buffer containing 20 mM sodium phosphate, 50 mM azidol, 1 mM MgCl2, and 1 mM ATP. The protein was cross-linked with 4.2 µM of BS3 (bis(sulfosuccinimidyl)suberate, Sigma) at room temperature for 30 min. Then the reaction was stopped by addition of Tris-HCl pH 8.1 at final concentration 33 mM for 15 min at room temperature. The sample was separated by SDS-PAGE at 10% and analyzed by Western blotting. Anti-RAD51 rabbit antibody was used as primary antibody (Sigma-Aldrich Cat# SAB2101936, RRID:AB_10607384), then secondary anti-rabbit antibody conjugated to alexafluor 680 (GAR 700: Molecular Probes Cat# A-21076, RRID:AB_2535736) was used for the detection. The quantification of monomer and cross-linked oligomers was performed by an Odyssey infrared imaging system scanner (LI-COR, Biosciences, Lincoln, NE, USA).

In another series the target is T2, RAD51 nucleofilament (Homo sapiens, UniProt Q06609).
T2 construct: His; made in house; host or cells: Escherichia coli BL21-DE3
T2 sequence (Q06609 1-339): T1 sequence (Q06609 1-339)
Nature of the series: DNA binding assay by bio-layer interferometry (BLItz), drug added after RAD51 is bound to ssDNA: nucleofilament dissociation. To be noted: drug added at 40 µM after association of RAD51 with ssDNA. As for the experimental part:
(§1) Figure 3 DIDS derivatives modulate the RAD51 nucleofilament formation. The association and dissociation between RAD51 and ssDNA were evaluated by Blitz interferometry. RAD51 (2 µM) was pre-incubated in phosphate buffer in absence or presence of each molecule at different concentrations before the measurement. The association phase followed until 50 s while the dissociation phase was monitored until 80 or 90 s, as indicated in graphs. (A) Effect of DIDS family on the ssDNA-RAD51 association was evaluated at 40 µM concentration of each molecule including DIDS, DADS, DAZDS, DNDS, and SITS. (B) DIDS, (C) DAZDS, and (D) SITS were incubated with RAD51 at increasing concentrations of 2, 10, and 20 µM for 5 min before the measurement by BLItz approach. (E) The percent of nucleofilament formation in presence of stilbene molecule was calculated in comparison to the condition in absence of drug after 50 s. This percentage was presented in function to the increasing concentration (from 2 to 20 µM) of each small molecule. (F) RAD51 associates with ssDNA until 50 s, and then each molecule is added at 40 µM as indicated by the narrow in the graph.
To this purpose, we incubated RAD51 with ssDNA, then we added the drug, and we measured the dissociation kinetic of RAD51 nucleofilament (Figure 3F).
(§2) PolydT DNA (1 µM) is biotinylated to allow its binding to the streptavidin-coated biosensor. Two methods of evaluation are used: the former by pre-incubating RAD51 with the drug to test and the latter by adding the drug after RAD51 is bound to DNA. In the first case, 2 µM RAD51 is incubated with the drug for […] on ice, then RAD51-ssDNA binding measurement is performed (baseline phase: 10 s; association phase: 40 s; dissociation phase: 30 s). In the second case, RAD51-ssDNA binding is analyzed, and after the association phase, the drug is added to the reaction and dissociation effect is measured (baseline phase: 10 s; association phase: 50 s; dissociation phase: 40 s). For the two cases, reaction buffer is composed of Phosphate Buffer saline (PBS) and 1 mM ATP. The tip is regenerated with 50 mM NaOH during 40 s before reuse. Measures are realized on a BLItz device from ForteBio.
In general terms: Biolayer interferometry detects binding as a change in optical thickness at a sensor tip.

Series [3] has as its target T1, RAD51. Nature of the series: DNA binding assay by bio-layer interferometry (BLItz), RAD51 pre-incubated with drug: ssDNA-RAD51 association / nucleofilament formation. To be noted: for Effect on ssDNA-RAD51 association: RAD51 2 µM pre-incubated with drug, 40 µM of each molecule (Figure 3A); for inhibition at 20 µM: read-out: Inhibition of the association of RAD51 with ssDNA (reduction of nucleofilament formation). The method, then:
We have evaluated the steps preceding D-loop formation, namely the formation of the nucleofilament of RAD51. We investigated the effect of DIDS and its derivatives on ssDNA binding and the nucleofilament formation functions of RAD51 by bio-layer interferometry. Two approaches were undertaken: (i) to determine the impact of drugs on RAD51-ssDNA binding and (ii) to evaluate the ability of drugs to dissociate RAD51 nucleofilament. Concerning the first approach, we pre-incubated RAD51 with the drug of interest for 5 min before measuring ssDNA-RAD51 binding efficiency. […] At a concentration of 20 μM, DAZDS inhibits the association of RAD51 with ssDNA by more than 80% (Figure 3C,E), while at the same concentration the SITS slightly reduces the formation of the nucleofilament by about 10–20% (Figure 3D,E).
as §1, §2

In the next series the test system is RAD51 (Homo sapiens). As to the kind of experiment: BLI. To be noted: 1 mM ATP, RAD51 pre-incubated with DAZDS 20 uM, BLI (BLItz): PBS, 2 uM RAD51, biotinylated polydT 1 uM on streptavidin sensor, drug pre-incubation 10 min on ice (Methods; 5 min in Results), assay ….
For series [4], the system named is fibroblast and prostatic cancer cells. As to the kind of experiment: Cytotoxicity (data not shown). It counts as cell-based.
On the set-up of series [5]: method as in PMID 18642799. To be noted: aqueous solution ref 30; cited from earlier work.
For a further series, the system named is RAD51 foci formation. Details: method as in earlier work. To be noted: leukemia cells / B cells ref 21, Muramatsu et al.; cited from earlier work.
For series [6], the system named is RAD51. Details: method as in PMID 19336413. To be noted: absence or presence of ATP has no influence ref 20; cited from earlier work.
Setting [7] is: D-loop formation by RAD51, 1 to 100 µM of each molecule, three independent experiments, read-out: IC50 determination from D-loop data.

Like-named read-outs stand apart in the source and are kept apart here.

Turning to `Nc1ccc(C=Cc2ccc(N)cc2S(=O)(=O)O)c(S(=O)(=O)O)c1` [DADS, 4,4′-diaminostilbene-2,2′-disulfonic acid], on RAD51 [1] (setting [7]), the IC50 is > 100 µM. Further, the “Effect on D-loop structure formation” value at RAD51 [1] was “no effect”. Besides, at RAD51 [2], the “Effect on oligomer/monomer migration profile (self-association of RAD51)” value is recorded as “no effect on the self-association of RAD51” and the “Decrease of polymerization rate (oligomer/monomer form intensity ratio)” value was “no effect”. In addition, on RAD51 nucleofilament, the “Effect on nucleofilament stability (dissociation of RAD51 nucleofilament)” value (shortened to “Effect on nucleofilament stability”) is on record as “not able to dissociate the nucleofilament”.

Take `CC(=O)Nc1ccc(C=Cc2ccc(N=C=S)cc2S(=O)(=O)O)c(S(=O)(=O)O)c1` [SITS, 4-acetamido-4′-isothiocyanatostilbene-2,2′-disulfonic acid]: on RAD51 [3], the “Effect on ssDNA-RAD51 association” value is on record as “inhibitory effect” and the inhibition at 20 µM lay in the range of 10 to 20%. Moreover, on RAD51 [1], the midpoint of inhibition, the IC50, lay at 29 µM and the “Effect on D-loop structure formation” value is listed as “significant inhibitory effect”. Moreover, at RAD51 [2], the “Effect on oligomer/monomer migration profile (self-association of RAD51)” value is listed as “decrease of oligomer forms in favor of RAD51 monomer” and the “Decrease of polymerization rate (oligomer/monomer form intensity ratio)” value is recorded as “about 40%”.

With polydT, the binding signal (% inhibition of association) with RAD51 (Homo sapiens) is > 80.

Take `[N-]=[N+]=Nc1ccc(C=Cc2ccc(N=[N+]=[N-])cc2S(=O)(=O)O)c(S(=O)(=O)O)c1` [DAZDS, 4,4′-diazidostilbene-2,2′-disulfonic acid]: the inhibition at 20 µM on RAD51 [3] (20 µM of drug, RAD51 2 µM pre-incubated, after 50 s) was > 80%. For the same compound, on RAD51 [3], the “Effect on ssDNA-RAD51 association” value is recorded as “inhibitory effect”. Also, the IC50 at RAD51 [1] (setting [7]) stood at 41.3 µM. In addition, the “Effect on D-loop structure formation” value on RAD51 [1] was “significant inhibitory effect”. On RAD51 [2], the “Effect on oligomer/monomer migration profile (self-association of RAD51)” value is given as “decrease of oligomer forms in favor of RAD51 monomer” and the “Decrease of polymerization rate (oligomer/monomer form intensity ratio)” value was “about 40%”. Moreover, in [4] (cells not given, in contrast to DIDS), the Cytotoxicity entry is reported as “weak cytotoxicity”. Besides, at RAD51 nucleofilament, the “Effect on nucleofilament stability” value was “totally dissociated the structure”.

For the compound `O=S(=O)(O)c1cc(N=C=S)ccc1C=Cc1ccc(N=C=S)cc1S(=O)(=O)O` [DIDS, 4,4′-diisothiocyanatostilbene-2,2′-disulfonic acid], on RAD51 [3], the “Effect on ssDNA-RAD51 association” value was “inhibitory effect”. In addition, at RAD51 [3] (from 10 µM of drug, RAD51 2 µM pre-incubated), the RAD51 nucleofilament formation result is “totally inhibited”. Moreover, the “Stability in aqueous solution” value in series [5] is “unstable in aqueous solution”. For the same compound, in the series with RAD51 foci formation, the RAD51 foci formation result was “inhibit RAD51 foci formation”. The “RAD51 binding to ssDNA or dsDNA in the presence of the drug” value with RAD51 [6] is “unable to bind ssDNA or dsDNA”. In addition, the IC50 at RAD51 [1] (setting [7]) was found to be 0.9 µM. Also, the “Effect on D-loop structure formation” value on RAD51 [1] is listed as “inhibits D-loop intermediate structure in a dose-dependent manner”. Further, on RAD51 [2], the “Effect on oligomer/monomer migration profile (self-association of RAD51)” value was “decrease of oligomer forms in favor of RAD51 monomer” and the “Decrease of polymerization rate (oligomer/monomer form intensity ratio)” value is “about 40%”. Also, the Cytotoxicity result in series [4] (fibroblast and prostatic cancer cells, data not shown) is “relatively cytotoxic”. For the same compound, the “Effect on nucleofilament stability” value at RAD51 nucleofilament is “totally dissociated the structure”.

For `O=[N+]([O-])c1ccc(C=Cc2ccc([N+](=O)[O-])cc2S(=O)(=O)O)c(S(=O)(=O)O)c1` [DNDS, 4,4′-dinitrostilbene-2,2′-disulfonic acid], on RAD51 [1], the IC50 is > 100 µM and the “Effect on D-loop structure formation” value was “no effect”. For the same compound, the IC50 on RAD51 [1] (read-out: IC50 determination from D-loop data, D-loop formation by RAD51, 1 to 100 µM of each molecule, three independent experiments) was ≤ 100 µM. For the same compound, on RAD51 [2], the “Effect on oligomer/monomer migration profile (self-association of RAD51)” value was “no effect on the self-association of RAD51” and the “Decrease of polymerization rate (oligomer/monomer form intensity ratio)” value is recorded as “no effect”. In addition, the “Effect on nucleofilament stability” value on RAD51 nucleofilament is given as “not able to dissociate the nucleofilament”.
